Assay results published in patent publication US6566349B1 (priority 2000, dated 2003).
Where two headings read alike, the source gives them in different places.

Columns and labels:
Beet Armyworm [1] = test: Control of beet armyworm in cotton; assay type: in vivo, beet armyworm (Spodoptera exigua)
Tobacco Budworm = test: Tobacco budworm boll damage in cotton; assay type: in vivo, tobacco budworm (Heliothis virescens); conditions: 50 bolls, lb./A: chlorpyrifos + dimethoate 0.62, chlorpyrifos 0.50, Dash 2.0, control 45
Beet Armyworm [2] = test: Control of beet armyworm in sweet corn; assay type: in vivo, beet armyworm (Spodoptera exigua)
Fall Armyworm = test: Control of fall armyworm in sweet corn; assay type: in vivo, fall armyworm (S. fruqiperda)
[3] = system: cabbage looper (Trichoplasia ni); test: Control of cabbage pests in cabbage: cabbage looper; assay type: in vivo
[4] = system: diamondback moth (Plutella xylostelia); test: Control of cabbage pests in cabbage: diamondback moth; assay type: in vivo
[5] = system: imported cabbageworm (Pieris rapae); test: Control of cabbage pests in cabbage: imported cabbageworm; assay type: in vivo
cotton aphid [6] = assay type: in vivo
cotton aphid [7] = assay type: in vivo; conditions: for Cotton aphid count 2 days after treatment: 5 leaves per plot, untreated 1277; for Cotton aphid count 2 days after treatment / Cotton aphid % control 2 days after treatment: lb./A: methyl parathion 0.5, oxydemeton-methyl 0.25, Dash 2.0, 53 gallons/A
[8] = system: Colorado Potato Beetle (Leptinotarsa decemlineata); test: Control of Colorado potato beetle in potatoes; assay type: in vivo; conditions: adjuvant 0.88 lb/A where added; for Total Number of larvae from a six meter plot, 3 DAT L2 / Total Number of larvae from a six meter plot, 7 DAT L2: first and second instar; for Total Number of larvae from a six meter plot, 3 DAT L4 / Total Number of larvae from a six meter plot, 7 DAT L4: third and fourth instar
Excerpt: The efficacy of Guthion™ (azinphosmethyl) alone and in combination with Dash HC® against the Colorado Potato Beetle (Leptinotarsa decemlineata) on potatoes. The test plot area was monitored for the presence of significant naturally occurring populations of the target pest, Colorado potato beetle (CPB). At the critical pest population threshold, treatments were applied to 6 meter, single row plots of the crop using a CO2 pressurized backpack sprayer.
Treatments were sprayed on potatoes in the early bloom stage to a mature population of the Colorado potato beetle. Larvae were evaluated in two classes: class one=first and second instar larvae, class two=third and fourth instar. Population counts were taken at 3 and 7 days after treatment. Trial results can be seen in Table 8.
Azinphosmethyl was applied at a rate of 0.375 lb ai/A. The recommended rate for CPB control. The insecticide was combined with water at a rate of 64.1 gal/acre. […].
Azinphosmethyl was applied at a rate of 0.30 lb ai/A. This is a 20% reduction below the recommended rate for CPB control. The insecticide was combined with water at a rate of 64.1 gal/Acre.
Azinphosmethyl was applied at a rate of 0.19 lb ai/A. This is ½ of the recommended label rate for CPB control. The insecticide was combined with water at a rate of 64.1 gal/acre.
Azinphosmethyl was applied at a rate of 0.375 lb ai/A. The recommended rate for CPB control. The insecticide was combined with water at a rate of 64.1 gal/a.
Azinphosmethyl was applied at a rate of 0.30 lb ai/A. This is a 20% reduction below the recommended rate for CPB control. The insecticide was combined with water at a rate of 64.1 gal/Acre. […] With the 64.1 gal of water used to deliver the mix, the resultant adjuvant concentration was 0.383%.
Azinphosmethyl was applied at a rate of 0.19 lb ai/A. This is ½ of the recommended label rate for CPB control. The insecticide was combined with water at a rate of 64.1 gal/acre. […] With the 64.1 gal of water used to deliver the mix, the resultant adjuvant concentration was 0.383%.

Bandedwinged Whitefly [9] = conditions: in vivo
Bandedwinged Whitefly [10] = conditions: in vivo; remark: listed apart in the source
Thrips = assay type: in vivo
[11] = lb./A: chlorpyrifos + dimethoate 0.45, chlorpyrifos 0.94, Dash 2.0
[12] = chlorpyrifos 0.62 lb.ai/A, DASH 0.88 lb/a where added
[13] = chlorpyrifos 1.0 lb.ai/A, DASH 0.88 lb/a where added
[14] = chlorpyrifos 1.24 lb.ai/A alone (treatment B), control 2.3
[15] = cotton, lb./A: acephate 0.20, dicrotophos 0.20, Dash 2.0

CCOP(=S)(OCC)Oc1nc(Cl)c(Cl)cc1Cl [Chlorpyrifos]
beet armyworm control, tankmixed with Dash versus applied alone at the same rates (Beet Armyworm [1]; chlorpyrifos at half-to-two-thirds the labeled rate): effective and better beet armyworm control when takmixed with Dash than when applied alone
# Beet Armyworms 3 days after treatment (Beet Armyworm [1]; cotton, 13-ft row section, lb./A: chlorpyrifos + dimethoate 0.62, chlorpyrifos 0.50, Dash 2.0, 20 gallons/A, control 112): 73
Beet Armyworms % control 3 days after treatment (Beet Armyworm [1]; cotton, lb./A: chlorpyrifos + dimethoate 0.62, chlorpyrifos 0.50, Dash 2.0): 38%
% Bolls Damaged by Tobacco Budworm 3 DAT (Tobacco Budworm): 42%
Beet Armyworm % control 4 DAT (Beet Armyworm [2]; [11]): 66%
# Beet Armyworm 4 DAT (Beet Armyworm [2]; lb./A: chlorpyrifos + dimethoate 0.45, chlorpyrifos 0.94, Dash 2.0, 33 gallons/A, control 3): 1
Fall Armyworm % control 4 DAT (Fall Armyworm; [11]): 95%
# Fall Armyworm 4 DAT (Fall Armyworm; lb./A: chlorpyrifos + dimethoate 0.45, chlorpyrifos 0.94, Dash 2.0, 33 gallons/A, control 5): 0.25
# of larvae TRIPNI 4DAT ([3]; 3 plants per plot, chlorpyrifos 1.24 lb.ai/A alone (treatment B), control 1.7): 0.7
# of larvae TRIPNI 4DAT [3, 12]: 2.7
# of larvae TRIPNI 7DAT [3, 12]: 0.7
# of larvae TRIPNI 4DAT [3, 13]: 1.3
# of larvae TRIPNI 7DAT [3, 13]: 2.0
# of larvae TRIPNI 7DAT ([3]; chlorpyrifos 1.24 lb.ai/A alone (treatment B), control 0.3): 0.7
# of larvae PLUTMA 4DAT [4, 12]: 0.7
# of larvae PLUTMA 7DAT [4, 12]: 0.3
# of larvae PLUTMA 4DAT [4, 13]: 0.3
# of larvae PLUTMA 7DAT [4, 13]: 0
# of larvae PLUTMA 7DAT ([4]; chlorpyrifos 1.24 lb.ai/A alone (treatment B), control 1.7): 1.0
# of larvae PLUTMA 4DAT [4, 14]: 1.0
# of larvae PIERRA 4DAT [5, 12]: 0
# of larvae PIERRA 7DAT [5, 12]: 0.3
# of larvae PIERRA 4DAT [5, 13]: 0
# of larvae PIERRA 7DAT [5, 13]: 1.0
# of larvae PIERRA 7DAT [5, 14]: 1.3
# of larvae PIERRA 4DAT ([5]; chlorpyrifos 1.24 lb.ai/A alone (treatment B), control 4.7): 0

CNC(=O)CSP(=S)(OC)OC [Dimethoate, O,O-dimethyl S-methylcarbamoylmethyl phosphorodithioate]
aphid control on tank-mixing with the adjuvant (cotton aphid [6]; in vivo): Improvement in aphid control
Cotton aphid count 2 days after treatment (cotton aphid [6]; okra, 20 leaves per plot, lb./A: methyl parathion 0.5, dimethoate 0.25, chlorpyrifos 0.17 + dimethoate 0.14, Dash 2.0, 30 gallons/A, untreated 132): 19
Cotton aphid % control 2 days after treatment (cotton aphid [6]; okra, lb./A: methyl parathion 0.5, dimethoate 0.25, chlorpyrifos 0.17 + dimethoate 0.14, Dash 2.0, 30 gallons/A): 86%

CC[S+]([O-])CCSP(=O)(OC)OC (stereo not shown) [Oxydemeton-methyl]
Cotton aphid count 2 days after treatment (cotton aphid [7]): 74
Cotton aphid % control 2 days after treatment (cotton aphid [7]): 94%
aphid control on tank-mixing with the adjuvant (cotton aphid [7]; in vivo): Improvement in aphid control

COP(=S)(OC)Oc1ccc([N+](=O)[O-])cc1 [Methyl parathion, O,O-dimethyl O-(4-nitrophenyl)phosphorothioate]
Cotton aphid count 2 days after treatment (cotton aphid [7]): 293
Cotton aphid % control 2 days after treatment (cotton aphid [7]): 77%
cotton aphid control, tank-mixed with the adjuvant versus applied alone (cotton aphid [7]; rates below the recommended maximum rate for aphid control): much higher when tank-mixed with the adjuvant than when applied alone
Cotton aphid % control 2 days after treatment (cotton aphid [6]; in vivo): 21 (84) %
Cotton aphid count 2 days after treatment (cotton aphid [6]; in vivo): 21 (84)

COP(=S)(OC)SCn1nnc2ccccc2c1=O [azinphosmethyl]
Total Number of larvae from a six meter plot, 3 DAT L2 ([8]; azinphosmethyl 0.19 lb ai/A): 4.0
Total Number of larvae from a six meter plot, 7 DAT L2 ([8]; azinphosmethyl 0.19 lb ai/A): 1.3
Total Number of larvae from a six meter plot, 3 DAT L4 ([8]; azinphosmethyl 0.19 lb ai/A): 11.7
Total Number of larvae from a six meter plot, 7 DAT L4 ([8]; azinphosmethyl 0.19 lb ai/A): 6.0
Total Number of larvae from a six meter plot, 3 DAT L2 ([8]; azinphosmethyl 0.30 lb ai/A): 5.0
Total Number of larvae from a six meter plot, 7 DAT L2 ([8]; azinphosmethyl 0.30 lb ai/A): 1.0
Total Number of larvae from a six meter plot, 3 DAT L4 ([8]; azinphosmethyl 0.30 lb ai/A): 7.7
Total Number of larvae from a six meter plot, 7 DAT L4 ([8]; azinphosmethyl 0.30 lb ai/A): 3.0
Total Number of larvae from a six meter plot, 7 DAT L2 ([8]; azinphosmethyl 0.375 lb ai/A, control 3.0): 6.0
Total Number of larvae from a six meter plot, 3 DAT L2 ([8]; azinphosmethyl 0.375 lb ai/A, control 29.7): 0.7
Total Number of larvae from a six meter plot, 7 DAT L4 ([8]; azinphosmethyl 0.375 lb ai/A, control 24.3): 5.0
Total Number of larvae from a six meter plot, 3 DAT L4 ([8]; azinphosmethyl 0.375 lb ai/A, control 79.3): 12.3

COP(=O)(NC(C)=O)SC (stereo not shown) [Acephate, O,S-dimethyl acetylphosphoramidothioate]
# Whitefly adults counted, 7 days after treatment (Bandedwinged Whitefly [9]): 54
Whitefly adults % control, 3 days after treatment (Bandedwinged Whitefly [9]): (98) %
Whitefly adults % control, 7 days after treatment (Bandedwinged Whitefly [9]): (90) %
Whitefly adults % control, 3 days after treatment (Bandedwinged Whitefly [10]): (98) %
Thrips % control, 1 DAT (Thrips; [15]): (80) %
Thrips % control, 5 DAT (Thrips; [15]): (35) %
Thrips % control, 9 DAT (Thrips; [15]): (44) %
# Thrips/10 Plants, 0 DAT (Thrips; cotton, lb./A: acephate 0.20, dicrotophos 0.20, Dash 2.0, 15 gallons/A, control 252 ± 88): 174 ± 50
# Thrips/10 Plants, 9 DAT (Thrips; cotton, lb./A: acephate 0.20, dicrotophos 0.20, Dash 2.0, control 36 ± 32): 20 ± 18
# Thrips/10 Plants, 5 DAT (Thrips; cotton, lb./A: acephate 0.20, dicrotophos 0.20, Dash 2.0, control 65 ± 43): 42 ± 17
# Thrips/10 Plants, 1 DAT (Thrips; cotton, lb./A: acephate 0.20, dicrotophos 0.20, Dash 2.0, control 115 ± 50): 21 ± 9

COP(=O)(OC)O/C(C)=C/C(=O)N(C)C [Dicrotophos]
# Thrips/10 Plants, 0 DAT (Thrips; in vivo): 228 ± 108
# Thrips/10 Plants, 1 DAT (Thrips; in vivo): 31 ± 12
# Thrips/10 Plants, 5 DAT (Thrips; in vivo): 36 ± 28
# Thrips/10 Plants, 9 DAT (Thrips; in vivo): 35 ± 16
Thrips % control, 1 DAT (Thrips; in vivo): (73) %
Thrips % control, 5 DAT (Thrips; in vivo): (45) %
Thrips % control, 9 DAT (Thrips; in vivo): (03) %
